In patent publication US20250382631A1, “PROTAC-CID SYSTEMS FOR USE IN MULTIPLEX GENE REGULATION” (William Marsh Rice University, priority 2022, published 2025):
Read-outs that look alike come from different tables or passages of the source.

Legend:
[1] = PROTAC-CID inducible EYFP gene activation, flow cytometry; type: cell-based, human; conditions: Homo sapiens, HEK-293T, FIG. 13A
Protocol: (§1) Fluorescence assay using flow cytometry analysis. Cells were treated with 0.05% Trpsin EDTA (Thermo Fisher Scientific no. 25300054) or TrypLE (Thermo Fisher Scientific no. 12605028) after transfection and centrifuged at 3000 g for 5 min. Supernatant was removed and the cell pellet was resuspended with 200 μL phosphate buffered saline (PBS) without calcium and magnesium (Thermo Fisher Scientific no. 10010023). Cells were transferred into 12×75 mm flow tubes (Global Scientific no. 110410). Cells were analyzed by MA900 flow cytometry (SONY). 405 nm laser (FL6 filter) was used for testing the BFP channel. 488 nm (FL1 filter) was used for testing the EYFP and GFP channel. Automated alignment using Automatic Setup Beads kit (SONY no. LE-B3001) is performed before running samples. In FIGS. 3A, 3B, and 17, experiments were performed under 2% FSC, 17% BSC, 24% FL1. In FIG. 18, experiments were performed under 2% FSC, 17% BSC, 27% FL1. All the other experiments were performed under 2% FSC, 17% BSC, 24% FL1 and 27% FL6. Flow cytometry data was processed and analyzed by FlowJo 10. Events were first gated with forward scatter-Area (FSC-A) and side scatter-Area (SSC-A) to select viable cells and remove the debris and dead cells. Cells were further gated with FSC-A and FSC-Height (FSC-H) for selecting single cells. The mean intensity of the reporter fluorescent protein (BFP and EYFP) in viable and single cell populations were calculated by FlowJo 10 as the mean of FL6-A and FL1-A. When calculating the fold change of relative fluorescence units (RFU), the relative fluorescence units of EYFP was calculated by dividing the mean of fluorescence intensity of EYFP with the mean of BFP fluorescence intensity for normalization as the following formula: […]
(§2) Next, the mean of the normalized relative fluorescence units of induced group were divided by the value of control group for calculating the fold change as the following formula: […]
(§3) Transfection and microscopy. HEK293T cells (American Type Culture Collection, no. CRL-3216) were cultured with high-glucose Dulbecco's modified Eagle's medium (DMEM) (Thermo Fisher Scientific no. 10569044) with 10% fetal bovine serum (FBS) (Thermo Fisher Scientific no. 10437028) and 1×penicillin-streptomycin (Thermo Fisher Scientific no. 15140122) at 37° C. with 5% CO2. Except for the data in FIGS. 3C, 3E, and 3H, cells were plated into 96 well plate (Corning no. 3598) and transfected by Polyethyleneimine Max (PEI Max) (Polysciences no. 24765-1). 1.5 μL PEI Max (1 mg/mL, pH=7.1) and 100 μl DMEM were mixed with plasmids to be slowly dropped into the cell medium after 30 mins of incubation. Medium was changed 12 hours post-transfection. The inductive small molecules, including Rapamycin (STEM CELL technologies no. 73362), dTAG-13 (TOCRIS no. 6605/5), dTAG^V-1 (TOCRIS no. 6744-5), dBRD9 (TOCRIS no. 6606/5), dTRIM24 (TOCRIS no. 6607/5), MZ1 (TOCRIS no. 6154/5), AT1 (TOCRIS no. 6356/5), TL13-12 (TOCRIS no. 6744/5), TL13-112 (TOCRIS no. 6745/5), dTAG-7 (TOCRIS no. 69125), ZXH3-26 (TOCRIS no. 6713/5) and ABA (GoldBio no. A-050-100), dissolved in Dimethyl sulfoxide (DMSO) (Sigma, no. D8418) were added. For the microscopy observation, the images were taken by Microscopy EVOS (Life Technologies) and processed by ImageJ (Schneider et al., 2012). If not otherwise noted, 60 ng of each plasmid were used for each sample.
(§4) Step-by-step fluorescence protein activation assay protocol. Reagents: • 1. PEI Max (Polysciences no. 24765-1) • 2. DMEM, high glucose, GlutaMAX™ Supplement, pyruvate (Thermo Fisher Scientific no. 10569044) • 3. Penicillin-Streptomycin (10,000 U/mL) (Thermo Fisher Scientific no. 15140122) • 4. Fetal Bovine Serum 500ML (FBS) (Thermo Fisher Scientific no. 10437028) • 5. TrypLE™ Express Enzyme (1×), phenol red (Thermo Fisher Scientific no. 12605068) • 6. PBS pH=7.4 (Thermo Fisher Scientific no. 10010023) • 7. Sony sorting chip […] for MA900 (SONY no. LE-C3210) • 8. Automatic Setup Beads kit (SONY no. LE-B3001) • 9. […]

[2] = test system: pUAS-1-driven EYFP expression in HEK293T cells transfected with GAL4- and VPR-fused PROTAC target protein / E3 ubiquitin ligase; experiment: as above; type: cell-based, human; conditions: for Bottom (best-fit value) / Span (best-fit value) / Top (best-fit value): Table 4 nonlinear regression of EYFP activation; for Bottom (best-fit value) / Span (best-fit value) / Top (best-fit value) / Hillslope (best-fit value) / logEC50 (best-fit value): FIG. 13A; for Hillslope (best-fit value) / logEC50 (best-fit value): Table 4 nonlinear regression; for increase in EYFP expression / EYFP induction compared to DMSO-treated controls: bromodomain-VPR fusion co-transfected with GAL4-VHL, FIG. 1C 5 μM dTRIM24, FIG. 1D 100 nM MZ1 or 1 μM AT1
Protocol: as §1, §2, §3, §4

[3] = test system: pUAS-2-Fluc expression in HEK293T cells with cognate or non-cognate GAL4/VPR protein pairs; experiment: Orthogonality analysis, Firefly luciferase (Fluc) luminescence; type: cell-based, human; conditions: seven different protein pairs, 2 days, FIGS. 2A and 14
Protocol: Luciferase luminescence intensity measurement. Before transfection, HEK293T cells were seeded in clear bottom 96 well assay plates (Corning no. 3610) with 100 μL DMEM with 10% FBS and 1× penicillin-streptomycin at 37° C. with 5% CO2. When cells reached 50% confluency, 1.5 μL PEI Max (1 mg/mL, pH=7.1) and 100 μL DMEM were mixed with 60 ng of each plasmid (GAL4 and VPR fused target protein or E3 ubiquitin ligase, pUAS-2-Fluc) for 30 min at room temperature. Mixture was transferred into cells gently. 12 h after transfection, medium was changed, and the inductive small molecules were supplied. 2-days post induction, 120 μL of medium was aspirated from each well containing 200 μL of medium, leaving 80 μL of medium per well, then treated with 40 μL of lysis buffer (500 mM DTT (Sigma no. D0632), 10 mM coenzyme A (RPI no. C95275), 100 mM ATP (Thermo Fisher Scientific no. R1441), 80 mg/mL D-luciferin (GoldBio no. LUCNA-100), Triton lysis buffer (0.1082 M Tris-HCl, 0.0419 M Tris-Base, 75 mM NaCl, 3 mM MgCl2)). Plate was shaken with 20 seconds in “Orbital” mode with frequency of 432 rpm and Amplitude of 1 mm to lysis the cells. Recording the luminescence by plate reader Infinite M200 (TECAN) with 1000 ms integration time using Megellan v1.7 (TECAN). Mean of luciferase luminescence relative light units (RLU) was calculated by the average of three biological replications. Normalized RLU were calculated by dividing RLU of the tested group with mean of RLU of DMSO treated control group for normalization: […]

[4] = target: GAL4-FKBP12^F36V (human); experiment: cell-based or functional assay
[5] = Table 4 nonlinear regression, Prism 9 [Agonist] vs. response variable slope (four parameters), no unit in table (the source gives nM), read-out: EC50 (best-fit value)
[6] = dose-response, read-out: EC50 for gene activation

Molecule: CC1=CC(=O)CC(C)(C)[C@@]1(O)/C=C/C(C)=C\C(=O)O [ABA, abscisic acid]
- EC50 [1, 5]: 763 nM
- EC50 [1, 6]: 763 nM
- Bottom (best-fit value) [2]: 1.587
- Span (best-fit value) [2]: 77.84
- Top (best-fit value) [2]: 79.43
- Hillslope (best-fit value) [2]: 2.083
- logEC50 (best-fit value) [2]: 2.882

Molecule: CC(=O)N[C@H](C(=O)N1C[C@H](O)C[C@H]1C(=O)NCc1ccc(-c2scnc2C)cc1)C(C)(C)SCCCCCCNC(=O)C[C@@H]1N=C(c2ccc(Cl)cc2)c2c(sc(C)c2C)-n2c(C)nnc21 [AT1]
- orthogonality: Fluc activation with cognate vs non-cognate protein partners [3]: interact with the same protein pairs

Molecule: Nc1cccc2c1CN(C1CCC(=O)NC1=O)C2=O (centres unmarked) [Lenalidomide]
- inducible gene activation efficiency compared with dTAG-13 PROTAC-CID ([2]; CRBN-VPR with GAL4 fused IKZF1 or IKZF3, Lenalidomide 1 μM vs 100 nM dTAG-13, 2 days, FIGS. 11D-11E): significantly less efficient than the dTAG-13 PROTAC-CID system

Molecule: COc1cc(N2CCN(CCOCCOCCNC(=O)CNc3cccc4c3C(=O)N(C3CCC(=O)NC3=O)C4=O)CC2)ccc1Nc1ncc(Cl)c(Nc2ccccc2S(=O)(=O)C(C)C)n1 (centres unmarked) [TL13-12]
- orthogonality: Fluc activation with cognate vs non-cognate protein partners [3]: interact with the same protein pairs

Molecule: Cc1cc(Nc2ncc(Cl)c(Nc3ccccc3S(=O)(=O)C(C)C)n2)c(OC(C)C)cc1C1CCN(CCOCCOCCNC(=O)CNc2cccc3c2C(=O)N(C2CCC(=O)NC2=O)C3=O)CC1 (centres unmarked) [TL13-112]
- orthogonality: Fluc activation with cognate vs non-cognate protein partners [3]: interact with the same protein pairs

Molecule: CCCOc1cccc(Oc2cc3c(cc2NS(=O)(=O)c2cccc(C(=O)NCCOCCOCCOCC(=O)N[C@H](C(=O)N4C[C@H](O)C[C@H]4C(=O)NCc4ccc(-c5scnc5C)cc4)C(C)(C)C)c2)n(C)c(=O)n3C)c1 [dTRIM24]
- EC50 [1, 5]: 6350 nM
- EC50 [1, 6]: 6300 nM
- grades of EYFP intensity ([2]; HEK293T transfected with GAL4-VHL, TRIM24^BD-VPR, BRD4^BD2-VPR and reporter plasmid, FIG. 2E: dTRIM24, MZ1 100 nM): 37 fold
- Bottom (best-fit value) [2]: 0.5037
- Span (best-fit value) [2]: 1430
- Top (best-fit value) [2]: 1431
- Hillslope (best-fit value) [2]: 1.463
- logEC50 (best-fit value) [2]: 3.803
- fold change gene activation activity ([2]; at 5 μM): more than 500 fold
- fold change in EYFP expression ([2]; below 1 μM): less than 100 fold

Molecule: CRBN-VPR
- EC50 of the inducer dTAG-13 for EYFP gene activation (dose-response, FIG. 13A) [4]: 53 nM
- fold increase in EYFP expression with dTAG-13 [4]: > 100 fold

Molecule: VHL-VPR (from UniProt P40337 1-213)
- EC50 of the inducer dTAG^V-1 for EYFP gene activation (dose-response, FIG. 13A) [4]: 228 nM

B1: BRD4^BD2-VPR: Fusion protein of VPR with bromodomain BD2 of BRD4 (SEQ ID NO: 7) (protein)
chain: MPKKKRKVGGGSPGGGGSSKVSEQLKCCSGILKEMFAKKHAAYAWPFYKPVDVEALGLHDYCDIIKHPMDMSTIKSKLEAREYRDAQEFGADVRLMFSNCYKYNPPDHEVVAMARKLQDVFEMRFAKMPDGGGSRADPKKKRKVEASGSGRADALDDFDLDMLGSDALDDFDLDMLGSDALDDFDLDMLGSDALDDFDLDMLINSRSQYLPDTDDRHRIEEKRKRTYETFKSIMKKSPFSGPTDPRPPPRRIAVPSRSSASVPKPAPQPYPFTSSLSTINYDEFPTMVFPSGQISQASALAPAPPQVLPQAPAPAPAPAMVSALAQAPAPVPVLAPGPPQAVAPPAPKPTQAGEGTLSEALLQLQFDDEDLGALLGNSTDPAVFTDLASVDNSEFQQLLNQGIPVAPHTTEPMLMEYPEAITRLVTGAQRPPDPAPAPLGAPGLPNGLLSGDEDFSSIADMDFSALLGSGSGSRDSREGMFLPKPEAGSAISDVFEGREVCQPKRIRPFHPPGSPWANRPLPASLAPTPTGPVHEPVGSLTPAPVPQPLDPAPAVTPEASHLLEDPDEETSQAVKALREMADTVIPQKEEAAICGQMDLSHPPPRGHLDELTTTLESMTEDLNLDSPLTPELNEILDTFLNDECLLHAMHISTGLSIFDTSLFTSGGGSKRPAATKKAGQAKKKKSR
- increase in EYFP expression / EYFP induction compared to DMSO-treated controls [2]: 441 fold

B2: TRIM24BD-VPR: Fusion protein of VPR with the bromodomain of TRIM24 (SEQ ID NO: 4) (protein)
chain: MPKKKRKVGGGSPGGGGSPNEDWCAVCQNGGELLCCEKCPKVFHLSCHVPTLTNFPSGEWICTFCRDLSKPEVEYDCDAPSHNSEKKKTEGLVKLTPIDKRKCERLLLFLYCHEMSLAFQDPVPLTVPDYYKIIKNPMDLSTIKKRLQEDYSMYSKPEDFVADFRLIFQNCAEFNEPDSEVANAGIKLENYFEELLKNLYPGGGSRADPKKKRKVEASGSGRADALDDFDLDMLGSDALDDFDLDMLGSDALDDFDLDMLGSDALDDFDLDMLINSRSQYLPDTDDRHRIEEKRKRTYETFKSIMKKSPFSGPTDPRPPPRRIAVPSRSSASVPKPAPQPYPFTSSLSTINYDEFPTMVFPSGQISQASALAPAPPQVLPQAPAPAPAPAMVSALAQAPAPVPVLAPGPPQAVAPPAPKPTQAGEGTLSEALLQLQFDDEDLGALLGNSTDPAVFTDLASVDNSEFQQLLNQGIPVAPHTTEPMLMEYPEAITRLVTGAQRPPDPAPAPLGAPGLPNGLLSGDEDFSSIADMDFSALLGSGSGSRDSREGMFLPKPEAGSAISDVFEGREVCQPKRIRPFHPPGSPWANRPLPASLAPTPTGPVHEPVGSLTPAPVPQPLDPAPAVTPEASHLLEDPDEETSQAVKALREMADTVIPQKEEAAICGQMDLSHPPPRGHLDELTTTLESMTEDLNLDSPLTPELNEILDTFLNDECLLHAMHISTGLSIFDTSLFTSGGGSKRPAATKKAGQAKKKKSR
- increase in EYFP expression / EYFP induction compared to DMSO-treated controls [2]: 592 fold
